# Data published in ChEMBL document CHEMBL1124186, “Synthesis and evaluation of tylosin-related macrolides modified at the aldehyde function: a new series of orally effective antibiotics” (1988).
# Key:
# [1] = system: Staphylococcus epidermidis; experiment: In vitro antimicrobial activity against Staphylococcus epidermidis EPI1; type: functional
# Streptococcus pneumoniae = experiment: In vitro antimicrobial activity against Streptococcus pneumoniae; type: functional
# Enterococcus faecium = experiment: In vitro antimicrobial activity against Streptococcus faecium X66; type: functional, streptococcus fae-cium
# Staphylococcus aureus = experiment: In vitro antimicrobial activity against Staphylococcus aureus X1; type: functional
# Streptococcus pyogenes = experiment: In vitro antimicrobial activity against Streptococcus pyogenes C203; type: functional
# Haemophilus influenzae = experiment: In vitro antimicrobial activity against Haemophilus influenzae.; type: functional
Structure (SMILES),MIC [1] [µg/mL],MIC (Streptococcus pneumoniae) [µg/mL],MIC (Enterococcus faecium) [µg/mL],MIC (Staphylococcus aureus) [µg/mL],MIC (Streptococcus pyogenes) [µg/mL],MIC (Haemophilus influenzae) [µg/mL]
CC[C@H]1OC(=O)C[C@@H](O)[C@H](C)[C@@H](O[C@@H]2O[C@H](C)[C@@H](O[C@H]3C[C@@](C)(O)[C@@H](O)[C@H](C)O3)[C@H](N(C)C)[C@H]2O)[C@@H](CCOc2cc(Cl)cc(Cl)c2)C[C@@H](C)C(=O)/C=C/C(C)=C/[C@@H]1CO[C@@H]1O[C@H](C)[C@@H](O)[C@@H](OC)[C@H]1OC,2,16,> 128,1,1,> 128
CC[C@H]1OC(=O)C[C@@H](O)[C@H](C)[C@@H](O[C@@H]2O[C@H](C)[C@@H](O[C@H]3C[C@@](C)(O)[C@@H](O)[C@H](C)O3)[C@H](N(C)C)[C@H]2O)[C@@H](CCNCCc2ccccc2)C[C@@H](C)C(=O)/C=C/C(C)=C/[C@@H]1C,4,1,8,4,2,64
CC[C@H]1OC(=O)C[C@@H](O)[C@H](C)[C@@H](O[C@@H]2O[C@H](C)[C@@H](O[C@H]3C[C@@](C)(O)[C@@H](O)[C@H](C)O3)[C@H](N(C)C)[C@H]2O)[C@@H](CCOC(C(F)(F)F)C(F)(F)F)C[C@@H](C)C(=O)/C=C/C(C)=C/[C@@H]1CO[C@@H]1O[C@H](C)[C@@H](O)[C@@H](OC)[C@H]1OC,4,32,> 128,4,8,> 128
CC[C@H]1OC(=O)C[C@@H](O)[C@H](C)[C@@H](O[C@@H]2O[C@H](C)[C@@H](O[C@H]3C[C@@](C)(O)[C@@H](O)[C@H](C)O3)[C@H](N(C)C)[C@H]2O)[C@@H](CCO)C[C@@H](C)C(=O)/C=C/C(C)=C/[C@@H]1C,32,64,64,64,64,> 128
CC[C@H]1OC(=O)C[C@@H](O)[C@H](C)[C@@H](O[C@@H]2O[C@H](C)[C@@H](O)[C@H](N(C)C)[C@H]2O)[C@@H](CCN2C(=O)c3ccccc3C2=O)C[C@@H](C)C(=O)/C=C/C(C)=C/[C@@H]1C,8,64,32,8,64,128
CC[C@H]1C[C@@H](C)C(=O)/C=C/C(C)=C/[C@H](C)[C@@H](CC)OC(=O)C[C@@H](O)[C@H](C)[C@H]1O[C@@H]1O[C@H](C)[C@@H](O)[C@H](N(C)C)[C@H]1O,16,16,64,8,8,64

# Next, values leading:
MIC [1] [µg/mL],MIC (Streptococcus pneumoniae) [µg/mL],MIC (Enterococcus faecium) [µg/mL],MIC (Staphylococcus aureus) [µg/mL],MIC (Streptococcus pyogenes) [µg/mL],MIC (Haemophilus influenzae) [µg/mL],Structure (SMILES)
0.25,0.25,8,0.25,1,–,CC[C@H]1OC(=O)C[C@@H](O)[C@H](C)[C@@H](O[C@@H]2O[C@H](C)[C@@H](O)[C@H](N(C)C)[C@H]2O)[C@@H](CCOCCc2ccccc2)C[C@@H](C)C(=O)/C=C/C(C)=C/[C@@H]1CO[C@@H]1O[C@H](C)[C@@H](O)[C@@H](OC)[C@H]1OC
1.2,4,8,0.25,0.5,–,CC[C@H]1C[C@@H](C)C(=O)/C=C/C(C)=C/[C@H](CO[C@@H]2O[C@H](C)[C@@H](O)[C@@H](O)[C@H]2OC)[C@@H](CC)OC(=O)C[C@@H](O)[C@H](C)[C@H]1O[C@@H]1O[C@H](C)[C@@H](O)[C@H](N(C)C)[C@H]1O
0.5,0.5,8,0.5,0.5,> 128,CC[C@H]1OC(=O)C[C@@H](O)[C@H](C)[C@@H](O[C@@H]2O[C@H](C)[C@@H](O[C@H]3C[C@@](C)(O)[C@@H](O)[C@H](C)O3)[C@H](N(C)C)[C@H]2O)[C@@H](CCOc2ccc(OC(C)=O)cc2)C[C@@H](C)C(=O)/C=C/C(C)=C/[C@@H]1CO[C@@H]1O[C@H](C)[C@@H](O)[C@@H](OC)[C@H]1OC
0.25,1,4,0.25,1,–,CC[C@H]1OC(=O)C[C@@H](O)[C@H](C)[C@@H](O[C@@H]2O[C@H](C)[C@@H](O)[C@H](N(C)C)[C@H]2O)[C@@H](CCOc2ccc(OC)cc2)C[C@@H](C)C(=O)/C=C/C(C)=C/[C@@H]1CO[C@@H]1O[C@H](C)[C@@H](O)[C@@H](OC)[C@H]1OC
16,4,32,16,8,64,CC[C@H]1OC(=O)C[C@@H](O)[C@H](C)[C@@H](O[C@@H]2O[C@H](C)[C@@H](O[C@H]3C[C@@](C)(O)[C@@H](O)[C@H](C)O3)[C@H](N(C)C)[C@H]2O)[C@@H](CCNCCc2ccccc2)C[C@@H](C)C(=O)/C=C/C(C)=C/[C@@H]1CO
1,8,64,1,1,128,CC[C@H]1OC(=O)C[C@@H](O)[C@H](C)[C@@H](O[C@@H]2O[C@H](C)[C@@H](O[C@H]3C[C@@](C)(O)[C@@H](O)[C@H](C)O3)[C@H](N(C)C)[C@H]2O)[C@@H](CCOc2cccc(N(C)C)c2)C[C@@H](C)C(=O)/C=C/C(C)=C/[C@@H]1CO[C@@H]1O[C@H](C)[C@@H](O)[C@@H](OC)[C@H]1OC
